Source: patent US10098879B2 (priority 2015, dated 2018)

Assays:
[1] = system: Ebola virus (EBOV); settings: human, in vivo
[2] = system: Ebola virus; settings: mouse, in vivo, 150 mg/kg; cited from earlier work

With NC(=O)c1nc(F)cnc1O [Favipiravir, 6-fluoro-3-hydroxy-2-pyrazinecarboxamide] the “Effect on survival, patients with CT<20” value [1] was “no indication that favipiravir monotherapy improved survival”, the “Mortality (participants died), baseline CT <20” value [1] was 85% and the “Mortality (participants died), baseline CT ≥20” value [1] was 15%. The “Mortality in patients with abnormal baseline creatinine values and BCT<20” value [1] was 100%, the “Mortality in patients with abnormal baseline creatinine values and BCT≥20” value [1] was 7% and the “Mortality rate versus pre-trial figures, patients with CT≥20” value [1] was “lower mortality rate compared to pre-trial figures”. The “Mortality (participants died), overall” value ([1]; po) was 48%, the “Tolerance of the drug” value ([1]; po) was “well tolerated” and the “Biochemical parameters of disease severity” value [2] was “reduced biochemical parameters of disease severity”. The Survival [2] was 100% and the Virus clearance [2] was “rapid virus clearance”.
